Read-outs that look alike come from different tables or passages of the source.
Assays:
[1] = test system: A431; test: OncoPanel cell proliferation assay, A431; format: cell-based, human; settings: Homo sapiens
Protocol: (§1) Cells were grown in RPMI 1640, 10% FBS, 2 mM L-alanyl-L-glutamine, 1 mM Na pyruvate, or a special medium. Cells were seeded into 384-well plates and incubated in a humidified atmosphere of 5% CO2 at 37° C. Compounds were added the day following cell seeding. At the same time, a time zero untreated cell plate was generated. After a 3-day incubation period, cells were fixed and stained to allow fluorescence imaging of nuclei. Compounds (1 mM stock solutions) were serially diluted in half-log steps from the highest test concentration ([…]), and assayed over 10 concentrations with a maximum assay concentration of 0.1% DMSO. Automated fluorescence microscopy was carried out using a Molecular Devices ImageXpress Micro XL high-content imager, and images were collected with a 4× objective. 16-bit TIFF images were acquired and analyzed with MetaXpress 5.1.0.41 software.
(§2) Cell proliferation was measured by the fluorescence intensity of an incorporated nuclear dye. The output is referred to as the relative cell count, where the measured nuclear intensity is transformed to percent of control (POC) using the following formula: […]
(§3) Cellular response parameters were calculated using nonlinear regression to a sigmoidal single-site dose response model:
(§4) Where y is a response measured at concentration x, A and B are the lower and upper limits of the response, C is the concentration at the response midpoint (EC50), and D is the Hill Slope (Ref. 1).
(§5) EC50 is the test compound concentration at the curve inflection point or half the effective response (parameter C of the fitted curve solution). GI50 is the concentration needed to reduce the observed growth by half (midway between the curve maximum and the time zero value). “Cell Count Activity Area” is an estimate of the integrated area above the curve (Barretina, et al. The Cancer Cell Line Encyclopedia enables predictive modelling of anticancer drug sensitivity. Nature 483: 603-607). […] In rare instances, values <0 or >10 may be observed. […] Curve-fitting, calculations, and report generation was performed using a custom data reduction engine and MathIQ based software (AIM).

[2] = test system: Hs 852.T; test: OncoPanel cell proliferation assay, Hs 852.T; format: cell-based, human
Protocol: as §1, §2, §3, §4, §5

[3] = test system: SW579; test: OncoPanel cell proliferation assay, SW579; format: cell-based, human; settings: for Relative cell count (%) Mean: SW579
Protocol: as §1, §2, §3, §4, §5

[4] = test system: CRO-AP2; test: OncoPanel cell proliferation assay, CRO-AP2; format: cell-based, human; settings: for Relative cell count (%) Mean: CRO-AP2
Protocol: as §1, §2, §3, §4, §5

[5] = test system: AsPC-1; test: OncoPanel cell proliferation assay, AsPC-1; settings: for Relative cell count (%) Mean: AsPC-1
Protocol: Cells were seeded into 384-well plates and incubated in a humidified atmosphere of 5% CO2 at 37° C. Compounds were added the day following cell seeding. At the same time, a time zero untreated cell plate was generated. After a 3-day incubation period, cells were fixed and stained to allow fluorescence imaging of nuclei. Compounds (1 mM stock solutions) were serially diluted in half-log steps from the highest test concentration (1 micromol), and assayed over 10 concentrations with a maximum assay concentration of 0.1% DMSO. Automated fluorescence microscopy was carried out using a Molecular Devices ImageXpress Micro XL high-content imager, and images were collected with a 4× objective. 16-bit TIFF images were acquired and analyzed with MetaXpress 5.1.0.41 software.
GI50 is the concentration needed to reduce the observed growth by half (midway between the curve maximum and the time zero value). […] In rare instances, values <0 or >10 may be observed. […] Curve-fitting, calculations, and report generation was performed using a custom data reduction engine and MathIQ based software (AIM).

[6] = test system: SK-N-AS; test: OncoPanel cell proliferation assay, SK-N-AS; format: cell-based, human
Protocol: as §1, §2, §3, §4, §5

[7] = test system: TF-1; test: OncoPanel cell proliferation assay, TF-1; format: cell-based, human; settings: for Relative cell count (%) Mean: TF-1
Protocol: as §1, §2, §3, §4, §5

[8] = Homo sapiens, 72 h, 3-day incubation, read-out: Cell Count EC50
[9] = Homo sapiens, 72 h, 3-day incubation, read-out: Cell Count GI50
[10] = Homo sapiens, 72 h, 3-day incubation, read-out: Cell Count IC50

## CO[C@H]1C[C@@H]2CC[C@@H](C)[C@@](O)(O2)C(=O)C(=O)N2CCCC[C@H]2C(=O)O[C@H]([C@H](C)C[C@@H]2C[C@@H]3C[C@H]2C[C@H]3O)CC(=O)[C@H](C)/C=C(\C)[C@@H](O)[C@@H](OC)C(=O)[C@H](C)C[C@H](C)/C=C/C=C/C=C/1C [Formula I, 37R-hydroxynorbornylrapamycin]
[1]; A-431, 72 h, A431, 3-day incubation, read-out: Cell Count IC50
  IC50: > 1000 nM
[1]; A-431, Table 4 summary, A431, Skin, Head/Neck, read-out: EC50
  EC50: 14 nM
[2]; 1.00E+00 microM
  Relative cell count (%) Mean: 67.7%
[2]; 1.00E−01 microM
  Relative cell count (%) Mean: 82.5%
[2]; 1.00E−02 microM
  Relative cell count (%) Mean: 92.9%
[2]; 1.00E−03 microM
  Relative cell count (%) Mean: 96.5%
[2]; 1.01E−04 microM
  Relative cell count (%) Mean: 106.1%
[2]; 3.16E−01 microM
  Relative cell count (%) Mean: 78.0%
[2]; 3.17E−02 microM
  Relative cell count (%) Mean: 87.7%
[2]; 3.17E−03 microM
  Relative cell count (%) Mean: 100.5%
[2]; 3.18E−04 microM
  Relative cell count (%) Mean: 105.1%
[2]; 3.18E−05 microM
  Relative cell count (%) Mean: 99.0%
[2]; [8]
  EC50: 335 nM
[2]; [9]
  GI50: 803 nM
[2]; [10]
  IC50: > 1000 nM
[2]; scale 0-10
  Cell Count Activity Area: 1.22
[3]; Homo sapiens, 72 h, SW579, 3-day incubation, read-out: Cell Count EC50
  EC50: 0.0616 nM
[3]; Homo sapiens, 72 h, SW579, 3-day incubation, read-out: Cell Count GI50
  GI50: 0.152 nM
[3]; Homo sapiens, 72 h, SW579, 3-day incubation, read-out: Cell Count IC50
  IC50: 0.367 nM
[3]; SW579, scale 0-10
  Cell Count Activity Area: 5.31
[3]; 1.00E+00 microM
  Relative cell count (%) Mean: 35.3%
[3]; 1.00E−01 microM
  Relative cell count (%) Mean: 35.8%
[3]; 1.00E−02 microM
  Relative cell count (%) Mean: 42.8%
[3]; 1.00E−03 microM
  Relative cell count (%) Mean: 44.2%
[3]; 1.01E−04 microM
  Relative cell count (%) Mean: 63.2%
[3]; 3.16E−01 microM
  Relative cell count (%) Mean: 37.9%
[3]; 3.17E−02 microM
  Relative cell count (%) Mean: 38.4%
[3]; 3.17E−03 microM
  Relative cell count (%) Mean: 44.6%
[3]; 3.18E−04 microM
  Relative cell count (%) Mean: 48.4%
[3]; 3.18E−05 microM
  Relative cell count (%) Mean: 78.0%
[4]; CRO-AP2, scale 0-10
  Cell Count Activity Area: 5.61
[4]; 1.00E+00 microM
  Relative cell count (%) Mean: 23.3%
[4]; 1.00E−01 microM
  Relative cell count (%) Mean: 24.5%
[4]; 1.00E−02 microM
  Relative cell count (%) Mean: 27.9%
[4]; 1.00E−03 microM
  Relative cell count (%) Mean: 38.7%
[4]; 1.01E−04 microM
  Relative cell count (%) Mean: 89.0%
[4]; 3.16E−01 microM
  Relative cell count (%) Mean: 23.3%
[4]; 3.17E−02 microM
  Relative cell count (%) Mean: 23.6%
[4]; 3.17E−03 microM
  Relative cell count (%) Mean: 29.7%
[4]; 3.18E−04 microM
  Relative cell count (%) Mean: 59.0%
[4]; 3.18E−05 microM
  Relative cell count (%) Mean: 93.4%
[4]; Homo sapiens, 72 h, CRO-AP2, 3-day incubation, read-out: Cell Count EC50
  EC50: 0.319 nM
[4]; Homo sapiens, 72 h, CRO-AP2, 3-day incubation, read-out: Cell Count GI50
  GI50: 0.434 nM
[4]; Homo sapiens, 72 h, CRO-AP2, 3-day incubation, read-out: Cell Count IC50
  IC50: 0.536 nM
[5]; AsPC-1, scale 0-10
  Cell Count Activity Area: 2.50
[5]; 1.00E+00 microM
  Relative cell count (%) Mean: 64.8%
[5]; 1.00E−01 microM
  Relative cell count (%) Mean: 74.0%
[5]; 1.00E−02 microM
  Relative cell count (%) Mean: 68.9%
[5]; 1.00E−03 microM
  Relative cell count (%) Mean: 81.7%
[5]; 1.01E−04 microM
  Relative cell count (%) Mean: 89.6%
[5]; 3.16E−01 microM
  Relative cell count (%) Mean: 67.9%
[5]; 3.17E−02 microM
  Relative cell count (%) Mean: 74.7%
[5]; 3.17E−03 microM
  Relative cell count (%) Mean: 77.8%
[5]; 3.18E−04 microM
  Relative cell count (%) Mean: 94.5%
[5]; 3.18E−05 microM
  Relative cell count (%) Mean: 99.5%
[5]; Homo sapiens, ASPC1
  EC50: 0.52 nM
[5]; Homo sapiens, ASPC1, 72 h, read-out: Cell Count EC50
  EC50: 0.519 nM
[5]; Homo sapiens, ASPC1, 72 h, read-out: Cell Count GI50
  GI50: 8.07 nM
[5]; Homo sapiens, ASPC1, 72 h, read-out: Cell Count IC50
  IC50: > 1000 nM
[6]; 1.00E+00 microM
  Relative cell count (%) Mean: 45.8%
[6]; 1.00E−01 microM
  Relative cell count (%) Mean: 51.0%
[6]; 1.00E−02 microM
  Relative cell count (%) Mean: 53.6%
[6]; 1.00E−03 microM
  Relative cell count (%) Mean: 62.3%
[6]; 1.01E−04 microM
  Relative cell count (%) Mean: 84.8%
[6]; 3.16E−01 microM
  Relative cell count (%) Mean: 48.3%
[6]; 3.17E−02 microM
  Relative cell count (%) Mean: 52.4%
[6]; 3.17E−03 microM
  Relative cell count (%) Mean: 56.7%
[6]; 3.18E−04 microM
  Relative cell count (%) Mean: 77.7%
[6]; 3.18E−05 microM
  Relative cell count (%) Mean: 102.1%
[6]; [8]
  EC50: 0.283 nM
[6]; [9]
  GI50: 0.826 nM
[6]; [10]
  IC50: 7.35 nM
[6]; scale 0-10
  Cell Count Activity Area: 3.99
[7]; Homo sapiens, 72 h, TF-1, 3-day incubation, read-out: Cell Count EC50
  EC50: > 1000 nM
[7]; Homo sapiens, 72 h, TF-1, 3-day incubation, read-out: Cell Count GI50
  GI50: > 1000 nM
[7]; Homo sapiens, 72 h, TF-1, 3-day incubation, read-out: Cell Count IC50
  IC50: > 1000 nM
[7]; TF-1, scale 0-10
  Cell Count Activity Area: 1.64
[7]; 1.00E+00 microM
  Relative cell count (%) Mean: 80.6%
[7]; 1.00E−01 microM
  Relative cell count (%) Mean: 80.1%
[7]; 1.00E−02 microM
  Relative cell count (%) Mean: 81.1%
[7]; 1.00E−03 microM
  Relative cell count (%) Mean: 87.4%
[7]; 1.01E−04 microM
  Relative cell count (%) Mean: 97.8%
[7]; 3.16E−01 microM
  Relative cell count (%) Mean: 80.1%
[7]; 3.17E−02 microM
  Relative cell count (%) Mean: 81.3%
[7]; 3.17E−03 microM
  Relative cell count (%) Mean: 88.0%
[7]; 3.18E−04 microM
  Relative cell count (%) Mean: 88.0%
[7]; 3.18E−05 microM
  Relative cell count (%) Mean: 96.7%

— patent US20210024542A1 (Torcept Therapeutics, Inc., priority 2018, published 2021)
